# Laboratory results taken from PMC4971072, “Chemically Homogenous Compounds with Antagonistic Properties at All α1-Adrenoceptor Subtypes but not β1-Adrenoceptor Attenuate Adrenaline-Induced Arrhythmia in Rats” (Frontiers in Pharmacology, 2016).
# Marks after values point to notes of the source that are not given here.
# Tests used:
# [1] = biological target: T1, α1B-adrenoceptors (Mus musculus, UniProt P97717); assay: Functional bioassay, isolated mouse spleen, noradrenaline contraction; assay type: biochemical; details: noradrenaline as agonist
# T1 construct: The spleen was removed from male mice; from tissue; host or cells: isolated mouse spleen
# T1 sequence (P97717 1-514): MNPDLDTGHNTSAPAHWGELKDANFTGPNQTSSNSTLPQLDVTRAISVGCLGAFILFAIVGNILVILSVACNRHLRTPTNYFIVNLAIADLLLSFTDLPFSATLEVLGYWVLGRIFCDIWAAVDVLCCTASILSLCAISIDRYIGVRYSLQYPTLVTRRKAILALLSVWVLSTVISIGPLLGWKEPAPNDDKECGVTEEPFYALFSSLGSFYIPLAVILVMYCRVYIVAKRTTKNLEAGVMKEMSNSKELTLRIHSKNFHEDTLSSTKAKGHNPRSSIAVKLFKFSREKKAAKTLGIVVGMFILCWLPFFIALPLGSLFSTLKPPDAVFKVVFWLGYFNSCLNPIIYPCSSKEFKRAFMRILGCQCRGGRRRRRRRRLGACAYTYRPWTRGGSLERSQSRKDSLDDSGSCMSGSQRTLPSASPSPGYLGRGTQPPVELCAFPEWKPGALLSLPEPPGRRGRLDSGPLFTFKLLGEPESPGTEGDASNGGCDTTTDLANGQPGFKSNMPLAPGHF
# Protocol: The influence on α1B-adrenoceptors was evaluated using the isolated mouse spleen. The spleen was removed from male mice right after killing the anesthetized animal by cervical dislocation. […] The initial optimal tissues tension was set at 1.0 g. Through the 100 min of equilibration tissues were stimulated with noradrenaline (0.1−10.0 μM) three times with washing out until the contractile response become constant. Two cumulative concentration-response curves to noradrenaline, at an interval of 60 min, were established on each tissue both in the presence and absence of antagonist. The incubation with antagonists went on for 30 min. The experiments were carried out in the constant presence of propranolol (1 μM) to block β-adrenoceptors, and minimize the involvement of these adrenoceptors in the response to noradrenaline.
# Data are means ± S.E.M. of at least 4 separate experiments. To establish Hill slopes for the agonist concentration–response curves and calculate EC50 values, curves were fitted to all the data by non-linear regression. The EC50 value in the presence and absence of antagonists was used to ascertain the concentration ratio (CR). Schild analysis was performed.
# [2] = system: normal ECG in rats; assay: The effect on normal electrocardiogram in rats; assay type: in vivo, rat; details: anesthetized rats, i.p. at ED84
# Protocol: The experiment was carried out to exclude the influence of tested compounds on normal ECG. […] The influence on QRS complex, PQ interval, heart rate (RR), and QTc interval was determined.
# [3] = system: blood pressure in normotensive rats; assay: Influence on blood pressure in normotensive rats; assay type: in vivo, rat; design: Systolic pressure / Diastolic pressure: unit not given beside the values; details: for Diastolic pressure / Systolic pressure: anesthetized normotensive rats
# Protocol: The tested compounds were administered i.p. after 15 min of stabilization period. The compounds were administered at the dose 10 mg/kg.
# [4] = lowest hypotensive dose i.p., 5 min
# [5] = lowest hypotensive dose i.p., 10 min
# [6] = lowest hypotensive dose i.p., 20 min
# [7] = lowest hypotensive dose i.p., 30 min
# [8] = lowest hypotensive dose i.p., 40 min
# [9] = lowest hypotensive dose i.p., 50 min
# [10] = lowest hypotensive dose i.p., 60 min
# [11] = lowest hypotensive dose i.p., Control (before administration)
# [12] = normotensive rats, lowest hypotensive dose i.p., period of significant effect
smiles,measurement,setting,value
"COc1ccccc1N1CCN(CCOCCOc2c(C)cccc2Cl)CC1.Cl [HBK-15, 1-[(2-chloro-6-methylphenoxy)ethoxyethyl]-4-(2-methoxyphenyl)piperazine hydrochloride]","Schild slope ± S.E.M., α1B",[1],0.96 ± 0.01
same,Kb,"[1]; read-out: pA2 ± S.E.M., α1B (converted)",21.4 nM
same,"influence on ECG parameters (PQ interval, QRS complex, QTc interval)",[2],did not influence the ECG parameters
same,Beats/min (ECG),[2]; 0 min (initial values),353.8 ± 10.2 Beats/min
same,PQ (ECG),[2]; 0 min (initial values),48.7 ± 1.0 ms
same,QRS (ECG),[2]; 0 min (initial values),25.7 ± 0.7 ms
same,QT (ECG),[2]; 0 min (initial values),87.3 ± 1.4 ms
same,"QTc (ECG, Bazett)",[2]; 0 min (initial values),212.0 ± 5.0 ms
same,Beats/min (ECG),[2]; 5 min,365.4 ± 15.3 Beats/min
same,PQ (ECG),[2]; 5 min,48.4 ± 0.5 ms
same,QRS (ECG),[2]; 5 min,26.3 ± 0.9 ms
same,QT (ECG),[2]; 5 min,86.5 ± 1.3 ms
same,"QTc (ECG, Bazett)",[2]; 5 min,213.6 ± 7.0 ms
same,Beats/min (ECG),[2]; 10 min,350.8 ± 10.5 Beats/min
same,PQ (ECG),[2]; 10 min,48.2 ± 1.0 ms
same,QRS (ECG),[2]; 10 min,26.1 ± 1.1 ms
same,QT (ECG),[2]; 10 min,87.2 ± 2.0 ms
same,"QTc (ECG, Bazett)",[2]; 10 min,211.3 ± 6.2 ms
same,Beats/min (ECG),[2]; 15 min,333.9 ± 12.4 Beats/min
same,PQ (ECG),[2]; 15 min,46.6 ± 0.9 ms
same,QRS (ECG),[2]; 15 min,25.6 ± 1.2 ms
same,QT (ECG),[2]; 15 min,87.5 ± 2.0 ms
same,"QTc (ECG, Bazett)",[2]; 15 min,207.1 ± 6.8 ms
same,Beats/min (ECG),[2]; 20 min,327.6 ± 20.3 Beats/min
same,PQ (ECG),[2]; 20 min,47.6 ± 0.5 ms
same,QRS (ECG),[2]; 20 min,26.3 ± 0.5 ms
same,QT (ECG),[2]; 20 min,87.2 ± 0.6 ms
same,"QTc (ECG, Bazett)",[2]; 20 min,203.7 ± 7.2 ms
same,Beats/min (ECG),[2]; 30 min,340.1 ± 17.7 Beats/min
same,PQ (ECG),[2]; 30 min,46.1 ± 0.3 ms
same,QRS (ECG),[2]; 30 min,26.4 ± 0.9 ms
same,QT (ECG),[2]; 30 min,86.7 ± 1.1 ms
same,"QTc (ECG, Bazett)",[2]; 30 min,206.4 ± 7.9 ms
same,Beats/min (ECG),[2]; 40 min,339.5 ± 20.4 Beats/min
same,PQ (ECG),[2]; 40 min,46.1 ± 0.7 ms
same,QRS (ECG),[2]; 40 min,28.0 ± 0.9 ms
same,QT (ECG),[2]; 40 min,87.0 ± 1.5 ms
same,"QTc (ECG, Bazett)",[2]; 40 min,206.5 ± 6.6 ms
same,Beats/min (ECG),[2]; 50 min,350.1 ± 17.9 Beats/min
same,PQ (ECG),[2]; 50 min,47.5 ± 0.7 ms
same,QRS (ECG),[2]; 50 min,26.1 ± 1.2 ms
same,QT (ECG),[2]; 50 min,88.2 ± 0.8 ms
same,"QTc (ECG, Bazett)",[2]; 50 min,212.7 ± 6.9 ms
same,Beats/min (ECG),[2]; 60 min,351.8 ± 15.0 Beats/min
same,PQ (ECG),[2]; 60 min,48.0 ± 1.1 ms
same,QRS (ECG),[2]; 60 min,26.3 ± 0.5 ms
same,QT (ECG),[2]; 60 min,88.5 ± 2.2 ms
same,"QTc (ECG, Bazett)",[2]; 60 min,213.9 ± 7.2 ms
same,Diastolic pressure,[3]; [4],96.3 ± 3.7^c
same,Systolic pressure,[3]; [4],121.2 ± 4.8^c
same,Diastolic pressure,[3]; [5],92.0 ± 4.3^c
same,Systolic pressure,[3]; [5],116.3 ± 6.0^c
same,Diastolic pressure,[3]; [6],88.5 ± 3.5^c
same,Systolic pressure,[3]; [6],112.0 ± 5.5^c
same,Diastolic pressure,[3]; [7],88.3 ± 2.9^c
same,Systolic pressure,[3]; [7],112.2 ± 4.2^c
same,Diastolic pressure,[3]; [8],91.0 ± 3.2^c
same,Systolic pressure,[3]; [8],112.5 ± 4.4^c
same,Diastolic pressure,[3]; [9],90.2 ± 2.7^c
same,Systolic pressure,[3]; [9],113.2 ± 3.7^c
same,Diastolic pressure,[3]; [10],93.0 ± 1.2^c
same,Systolic pressure,[3]; [10],117.3 ± 3.0^c
same,Diastolic pressure,[3]; [11],110.3 ± 2.2
same,Systolic pressure,[3]; [11],139.0 ± 2.7
same,lowest hypotensive dose,"[3]; normotensive rats, lowest dose significantly lowering systolic and diastolic blood pressure",5.0 mg/kg
same,reduction of diastolic blood pressure,[3]; [12],13−20%
same,reduction of systolic blood pressure,[3]; [12],13−19%
